# Earlier results in US20240226204A9 (priority 2021, published 2024).
# Tested on: COVID-19
# Conditions: human, in vivo
compound,measurement,value
C[C@@H]1C[C@H]2[C@@H]3CCC4=CC(=O)C=C[C@]4(C)[C@@]3(F)[C@@H](O)C[C@]2(C)[C@@]1(O)C(=O)CO [dexamethasone],mortality,increase in mortality
CCN(CCO)CCCC(C)Nc1ccnc2cc(Cl)ccc12 (stereo not drawn) [hydroxychloroquine],efficacy / antiviral effect in clinical use against COVID-19,lack of efficacy
lopinavir-ritonavir,efficacy / antiviral effect in clinical use against COVID-19,lack of efficacy
